Experimental data published in patent US8551984B2, “Aminopyrimidines as SYK inhibitors” (Merck Sharp & Dohme Corp., priority 2009, dated 2013).

Target: recombinant human SYK (GST-hSYK fusion protein) (Homo sapiens, UniProt P43405)
Experiment: biochemical
Details: rhSYK Activity (IC50), recombinant human GST-SYK 5 pM, ATP 25 μM, biotinylated substrate peptide 250 nM, HTRF, 10-dose titration
Text: Homogeneous Time-Resolved Fluorescence (HTRF) Assay for the Recombinant Human SYK Enzyme:

IC50 [nM] | SMILES
< 100 | Cc1cc(Nc2nccc(C(F)(F)F)n2)cc(-c2cnc(-c3cnn4c3CCCC4)s2)c1 [Example 114-1]
< 100 | Cc1cc(Nc2nccc(C(F)(F)F)n2)cc(-c2cnc(-c3cccnc3)s2)c1 [Example 114-3]
< 100 | Cc1cc(Nc2nccc(C(F)(F)F)n2)cc(-c2cnc(-c3ccncc3)s2)c1 [Example 114-4]
100 to 1000 | Cc1cc(Nc2nccc(C(F)(F)F)n2)cc(-c2cnc(-c3cccs3)s2)c1 [Example 114-5]
100 to 1000 | Cc1cc(Nc2nccc(C(F)(F)F)n2)cc(-c2cnc(-c3ccsc3)s2)c1 [Example 114-6]
< 100 | Cc1cc(Nc2nccc(C(F)(F)F)n2)cc(-c2cnc(-c3ccco3)s2)c1 [Example 114-7]
< 100 | Cc1cc(Nc2nccc(C(F)(F)F)n2)cc(-c2cnc(-c3ccc[nH]3)s2)c1 [Example 114-8]

Further lines, the compound ahead of its results:

SMILES | IC50 [nM]
Cc1cc(Nc2nccc(C(F)(F)F)n2)cc(-c2cnc(-c3cn[nH]c3)s2)c1 [Example 114, N-{3-methyl-5-[2-(1H-pyrazol-4-yl)-1,3-thiazol-5-yl]phenyl}-4-(trifluoromethyl)pyrimidin-2-amine] | < 100
Cc1cc(Nc2nccc(C(F)(F)F)n2)cc(-c2cnc(-c3cnn(CCO)c3)s2)c1 [Example 115, 2-{4-[5-(3-methyl-5-{[4-(trifluoromethyl)pyrimidin-2-yl]amino}phenyl)-1,3-thiazol-2-yl]-1H-pyrazol-1-yl}ethanol] | < 100
Cc1cc(Nc2nccc(OC(C)C)n2)cc(-c2cnc([C@@]3(O)CC[C@H](C(N)=O)C(C)(C)C3)s2)c1 [Example 119, (1S,4R)-4-hydroxy-2,2-dimethyl-4-[5-(3-methyl-5-{[4-(propan-2-yloxy)pyrimidin-2-yl]-amino}phenyl)-1,3-thiazol-2-yl]cyclohexanecarboxamide] | < 100
COC(=O)[C@@H]1CC[C@@](O)(c2ncc(-c3cc(C)cc(Nc4nccc(C(F)(F)F)n4)c3)s2)CC1(C)C [Example 121, Methyl(1R,4S)-4-hydroxy-2,2-dimethyl-4-[5-(3-methyl-5-{[4-(trifluoromethyl)pyrimidin-2-yl]-amino}phenyl)-1,3-thiazol-2-yl]cyclohexanecarboxylate] | < 100
COCCCc1ccnc(Nc2cc(C)cc(-c3cnc(C4(O)CCC(C(=O)OC(C)(C)C)CC4)s3)c2)n1 (stereo not drawn) [Example 122, tert-butyl 4-hydroxy-4-[5-(3-{[4-(3-methoxypropyl)pyrimidin-2-yl]amino}-5-methylphenyl)-1,3-thiazol-2-yl]cyclohexanecarboxylate] | 100 to 1000
CC1(C)C[C@@](O)(c2ncc(-c3cc(CN)cc(Nc4nccc(C(F)(F)F)n4)c3)s2)CC[C@@H]1C(=O)O [Example 123, (1S,4R)-4-{5-[3-(aminomethyl)-5-{[4-(trifluoromethyl)pyrimidin-2-yl]amino}phenyl]-1,3-thiazol-2-yl}-4-hydroxy-2,2-dimethylcyclohexanecarboxylic acid] | < 100
CC1(C)C[C@@](O)(c2ncc(-c3cc(CNC(N)=O)cc(Nc4nccc(C(F)(F)F)n4)c3)s2)CC[C@@H]1C(=O)O [Example 124, (1S,4R)-4-[5-(3-[(carbamoylamino)methyl]-5-{[4-(trifluoromethyl)pyrimidin-2-yl]amino}phenyl)-1,3-thiazol-2-yl]-4-hydroxy-2,2-dimethylcyclohexanecarboxylic acid] | < 100
CC(=O)NCc1cc(Nc2nccc(C(F)(F)F)n2)cc(-c2cnc([C@@]3(O)CC[C@H](C(=O)O)C(C)(C)C3)s2)c1 [Example 125, (1S,4R)-4-[5-(3-[(acetylamino)methyl]-5-{[4-(trifluoromethyl)pyrimidin-2-yl]amino}phenyl)-1,3-thiazol-2-yl]-4-hydroxy-2,2-dimethylcyclohexanecarboxylic acid] | < 100
Cc1cc(Nc2nccc(C(F)(F)F)n2)cc(-c2cnc(C3(OCCO)CCNC(=O)CC3)s2)c1 (stereo not drawn) [Example 127, 5-(2-hydroxyethoxy)-5-[5-(3-methyl-5-{[4-(trifluoromethyl)pyrimidin-2-yl]amino}phenyl)-1,3-thiazol-2-yl]azepan-2-one] | < 100
Cc1cc(Nc2nccc(C(F)(F)F)n2)cc(-c2cnc(C3(C#N)CCCCC3)s2)c1 [Example 128, 1-[5-(3-methyl-5-{[4-(trifluoromethyl)pyrimidin-2-yl]amino}phenyl)-1,3-thiazol-2-yl]cyclohexanecarbonitrile] | 100 to 1000
Cc1cc(Nc2nccc(C(F)(F)F)n2)cc(-c2cnc(C3(C(N)=O)CCCCC3)s2)c1 [Example 129, 1-[5-(3-methyl-5-{[4-(trifluoromethyl)pyrimidin-2-yl]amino}phenyl)-1,3-thiazol-2-yl]cyclohexanecarboxamide] | < 100
Cc1cc(Nc2nccc(C(F)(F)F)n2)cc(-c2cnc(C3CCCCC3)s2)c1 [Example 130] | 100 to 1000
Cc1cc(Nc2nccc(C(F)(F)F)n2)cc(-c2cnc(C(C)(O)c3ccc(S(C)(=O)=O)cc3)s2)c1 (stereo not drawn) [Example 131, 1-[4-(methylsulfonyl)phenyl]-1-[5-(3-methyl-5-{[4-(trifluoromethyl)pyrimidin-2-yl]amino}phenyl)-1,3-thiazol-2-yl]ethanol] | < 100
Cc1cc(Nc2nccc(C(F)(F)F)n2)cc(-c2cnc(C3(F)CCSCC3)s2)c1 [Example 132, N-{3-[2-(4-fluorotetrahydro-2H-thiopyran-4-yl)-1,3-thiazol-5-yl]-5-methylphenyl}-4-(trifluoromethyl)pyrimidin-2-amine] | 100 to 1000
Cc1cc(Nc2nccc(C(F)(F)F)n2)cc(-c2cnc(C3=CCSCC3)s2)c1 [Example 133, N-{3-[2-(3,6-dihydro-2H-thiopyran-4-yl)-1,3-thiazol-5-yl]-5-methylphenyl}-4-(trifluoromethyl)pyrimidin-2-amine] | < 100
Cc1cc(Nc2nccc(C(F)(F)F)n2)cc(-c2cnc(C3(F)CCS(=O)(=O)CC3)s2)c1 [Example 134, N-{3-[2-(4-fluoro-1,1-dioxidotetrahydro-2H-thiopyran-4-yl)-1,3-thiazol-5-yl]-5-methylphenyl}-4-(trifluoromethyl)pyrimidin-2-amine] | < 100
Cc1cc(Nc2nccc(C(F)(F)F)n2)cc(-c2cnc(C3=CCS(=O)(=O)CC3)s2)c1 [Example 135, N-{3-[2-(1,1-dioxido-3,6-dihydro-2H-thiopyran-4-yl)-1,3-thiazol-5-yl]-5-methylphenyl}-4-(trifluoromethyl)pyrimidin-2-amine] | < 100
Cc1cc(Nc2nccc(C(F)(F)F)n2)cc(-c2cnc(C3CCSCC3)s2)c1 [Example 136, N-{3-methyl-5-[2-(tetrahydro-2H-thiopyran-4-yl)-1,3-thiazol-5-yl]phenyl}-4-(trifluoromethyl)pyrimidin-2-amine] | < 100

Same assay, conditions: rhSYK Activity, Table 113B

IC50 [nM] | SMILES
100 to 1000 | CCOC(=O)C1CC(C)C(O)(c2ncc(-c3cc(C)cc(Nc4nccc(C(F)(F)F)n4)c3)s2)CC1C (stereo not drawn) [Example 113B-20]
< 100 | Cc1cc(Nc2nccc(C)n2)cc(-c2cnc(C3(O)CC(C)C(C(=O)O)C(C)C3)s2)c1 (stereo not drawn) [Example 113B-21]
100 to 1000 | Cc1cc(Nc2nccc(C)n2)cc(-c2cnc(C3(O)CC(C)C(C(=O)OC(C)C)C(C)C3)s2)c1 (stereo not drawn) [Example 113B-23]
< 100 | Cc1cc(Nc2nccc(C(F)(F)F)n2)cc(-c2cnc(C3(O)CC(C)C(C(=O)O)C(C)C3)s2)c1 (stereo not drawn) [Example 113B-24]
1000 to 10000 | Cc1cc(Nc2nccc(C(F)(F)F)n2)cc(-c2cnc(C3(O)CC(C)C(C(=O)OC(C)C)C(C)C3)s2)c1 (stereo not drawn) [Example 113B-26]
100 to 1000 | Cc1cc(Nc2nccc(C(F)(F)F)n2)cc(-c2cnc(C3(O)CC(C)C(C(=O)OC(C)C)C(C)C3)s2)c1 (stereo not drawn) [Example 113B-27]
< 100 | Cc1cc(Nc2nccc(C)n2)cc(-c2cnc(C3(O)C(C)CC(C(=O)O)CC3C)s2)c1 (stereo not drawn) [Example 113B-28]
< 100 | CCOC(=O)C1CC(C)C(O)(c2ncc(-c3cc(C)cc(Nc4nccc(C)n4)c3)s2)C(C)C1 (stereo not drawn) [Example 113B-29]
< 100 | Cc1cc(Nc2nccc(C(F)(F)F)n2)cc(-c2cnc(C3(O)C(C)CC(C(=O)O)CC3C)s2)c1 (stereo not drawn) [Example 113B-30]
< 100 | CCOC(=O)C1CC(C)C(O)(c2ncc(-c3cc(C)cc(Nc4nccc(C(F)(F)F)n4)c3)s2)C(C)C1 (stereo not drawn) [Example 113B-31]

Same assay, conditions: rhSYK Activity, Table 113D, upper part

IC50 [nM] | SMILES
< 100 | C=C(c1ccc(C(=O)O)cc1)c1ncc(-c2cc(C)cc(Nc3nccc(C(F)(F)F)n3)c2)s1 [Example 113D-1]
100 to 1000 | C=C(c1ccc(C(=O)OC)cc1)c1ncc(-c2cc(C)cc(Nc3nccc(C(F)(F)F)n3)c2)s1 [Example 113D-2]
< 100 | Cc1cc(Nc2nccc(C(F)(F)F)n2)cc(-c2cnc(C3(c4ccc(C(=O)O)cc4)CC3)s2)c1 [Example 113D-3]
< 100 | Cc1cc(Nc2nccc(C(F)(F)F)n2)cc(-c2cnc(C(C)(C)c3ccc(C(=O)O)cc3)s2)c1 [Example 113D-5]
< 100 | Cc1cc(Nc2nccc(C(F)(F)F)n2)cc(-c2cnc(C(F)(F)c3ccc(C(=O)O)cc3)s2)c1 [Example 113D-7]
100 to 1000 | COC(=O)c1ccc(C(C)(C)c2ncc(-c3cc(C)cc(Nc4nccc(C(F)(F)F)n4)c3)s2)cc1 [Example 113D-9]

Same assay, conditions: rhSYK Activity, Table 115

IC50 [nM] | SMILES
< 100 | Cc1cc(Nc2nccc(C(F)(F)F)n2)cc(-c2cnc(-c3cnn(C4CCOCC4)c3)s2)c1 [Example 115-1]
< 100 | Cc1cc(Nc2nccc(C(F)(F)F)n2)cc(-c2cnc(-c3cnn(CCC#N)c3)s2)c1 [Example 115-2]
< 100 | Cc1cc(Nc2nccc(C(F)(F)F)n2)cc(-c2cnc(-c3cnn(CCCO)c3)s2)c1 [Example 115-3]
< 100 | Cc1cc(Nc2nccc(C(F)(F)F)n2)cc(-c2cnc(-c3cnn(C[C@@H](O)CO)c3)s2)c1 [Example 115-4]
< 100 | Cc1cc(Nc2nccc(C(F)(F)F)n2)cc(-c2cnc(-c3cnn(CC(C)(C)O)c3)s2)c1 [Example 115-5]
< 100 | Cc1cc(Nc2nccc(C(F)(F)F)n2)cc(-c2cnc(-c3cnn(C(CCO)C(=O)O)c3)s2)c1 (stereo not drawn) [Example 115-6]
< 100 | Cc1cc(Nc2nccc(C(F)(F)F)n2)cc(-c2cnc(-c3cnn(CC4CNC(=O)O4)c3)s2)c1 (stereo not drawn) [Example 115-7]
